Data from ChEMBL document CHEMBL1201862, “PubChem BioAssay data set” (2004).
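Briefly, cells in 96-well plates were exposed to five compound concentrations for 48 h, and endpoints were estimated by linear interpolation. Abbreviation: GI50, concentration required for 50% inhibition of growth.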 Calls of active or inactive are those of the source. Rule as the data show it: active = GI50 up to about 1.1 µM and inactive = higher.

How the values were obtained:
Assay in all cases: inhibition of tumour cell growth, NCI panel, 48 h
[1] = system: NCI-H226
[2] = system: A498
[3] = system: UACC-257
[4] = system: IGROV-1
[5] = system: SW-620
[6] = system: NCI-H23
[7] = system: HOP-92
[8] = system: K562
[9] = system: A549
[10] = system: CCRF-CEM
[11] = system: NCI-H522
[12] = system: SNB-19
[13] = system: HT-29
[14] = system: SNB-75
[15] = system: UACC-62
[16] = system: 786-0
[17] = system: M14

| SMILES | GI50 [1] | GI50 [2] | GI50 [3] | GI50 [4] | GI50 [5] | GI50 [6] | GI50 [7] | GI50 [8] | GI50 [9] | GI50 [10] | GI50 [11] | GI50 [12] | GI50 [13] | GI50 [14] | GI50 [15] | GI50 [16] | GI50 [17] |
| --- | --- | --- | --- | --- | --- | --- | --- | --- | --- | --- | --- | --- | --- | --- | --- | --- | --- |
| c1ccc2cc3c(cc2c1)OP1(Oc2cccc4cccnc24)(O3)Oc2cc3ccccc3cc2O1 | 9.89 µM (inactive) | 18.2 µM (inactive) | 2.69 µM (inactive) | 5.36 µM (inactive) | 2.81 µM (inactive) | 2.71 µM (inactive) | 3.57 µM (inactive) | 2.04 µM (inactive) | 5.9 µM (inactive) | 0.984 µM (active) | 2.39 µM (inactive) | 24.3 µM (inactive) | 2.9 µM (inactive) | 18.6 µM (inactive) | 3.05 µM (inactive) | – | – |
| CCc1cccc(C)c1NC(=O)C(=O)Cc1nc2ccccc2o1 | > 100 µM (inactive) | > 100 µM (inactive) | > 100 µM (inactive) | > 100 µM (inactive) | > 100 µM (inactive) | > 100 µM (inactive) | > 100 µM (inactive) | > 100 µM (inactive) | – | > 100 µM (inactive) | > 100 µM (inactive) | > 100 µM (inactive) | > 100 µM (inactive) | – | > 100 µM (inactive) | > 100 µM (inactive) | > 100 µM (inactive) |
| O=C1O[C@@H](c2ccccc2)C[C@H]1CN1CCOCC1 | 43.6 µM (inactive) | > 100 µM (inactive) | > 100 µM (inactive) | > 100 µM (inactive) | > 100 µM (inactive) | 17 µM (inactive) | > 100 µM (inactive) | 40.7 µM (inactive) | > 100 µM (inactive) | 33.7 µM (inactive) | > 100 µM (inactive) | – | > 100 µM (inactive) | 51.9 µM (inactive) | > 100 µM (inactive) | 28.2 µM (inactive) | > 100 µM (inactive) |
| OC12CCCCCC1(N1CCOCC1)c1ccccc12 (stereo not drawn) | > 100 µM (inactive) | > 100 µM (inactive) | > 100 µM (inactive) | > 100 µM (inactive) | > 100 µM (inactive) | > 100 µM (inactive) | – | > 100 µM (inactive) | > 100 µM (inactive) | > 100 µM (inactive) | > 100 µM (inactive) | > 100 µM (inactive) | > 100 µM (inactive) | > 100 µM (inactive) | > 100 µM (inactive) | > 100 µM (inactive) | > 100 µM (inactive) |
| O=C(Cc1ccccc1)NN1C(=O)C(Cl)C1c1cc(Br)cc(Br)c1O (stereo not drawn) | 14.7 µM (inactive) | – | 11.5 µM (inactive) | 13.1 µM (inactive) | 7.14 µM (inactive) | 12.2 µM (inactive) | – | 6.44 µM (inactive) | 15.9 µM (inactive) | 3.05 µM (inactive) | 3.8 µM (inactive) | 8.34 µM (inactive) | 21.6 µM (inactive) | 16.2 µM (inactive) | 10.3 µM (inactive) | 10.1 µM (inactive) | 14.8 µM (inactive) |
| C#CC1(O)c2ccccc2C(=O)c2ccccc21 | > 100 µM (inactive) | 10.9 µM (inactive) | > 100 µM (inactive) | 11.8 µM (inactive) | > 100 µM (inactive) | > 100 µM (inactive) | 21.6 µM (inactive) | > 100 µM (inactive) | > 100 µM (inactive) | > 100 µM (inactive) | > 100 µM (inactive) | > 100 µM (inactive) | > 100 µM (inactive) | – | – | > 100 µM (inactive) | – |
| CC(C)C(=O)Nc1nc2c(ncn2C2OC(CO)C(O)C2O)c(=O)[nH]1 (stereo not drawn) | > 100 µM (inactive) | > 100 µM (inactive) | > 100 µM (inactive) | > 100 µM (inactive) | > 100 µM (inactive) | > 100 µM (inactive) | > 100 µM (inactive) | > 100 µM (inactive) | > 100 µM (inactive) | > 100 µM (inactive) | > 100 µM (inactive) | – | > 100 µM (inactive) | > 100 µM (inactive) | > 100 µM (inactive) | > 100 µM (inactive) | > 100 µM (inactive) |
| N#CCCCCCOCCOCCOCCOCCOCCCCCC#N | > 100 µM (inactive) | > 100 µM (inactive) | 81.1 µM (inactive) | > 100 µM (inactive) | > 100 µM (inactive) | > 100 µM (inactive) | – | 68.5 µM (inactive) | > 100 µM (inactive) | > 100 µM (inactive) | > 100 µM (inactive) | > 100 µM (inactive) | > 100 µM (inactive) | > 100 µM (inactive) | 68.7 µM (inactive) | > 100 µM (inactive) | > 100 µM (inactive) |
| C/C(CC(=O)Nc1cccc(Cl)c1C)=N\NC(=O)c1ccncc1 | > 100 µM (inactive) | – | > 100 µM (inactive) | > 100 µM (inactive) | > 100 µM (inactive) | 58.9 µM (inactive) | > 100 µM (inactive) | > 100 µM (inactive) | > 100 µM (inactive) | > 100 µM (inactive) | 21.4 µM (inactive) | – | > 100 µM (inactive) | > 100 µM (inactive) | > 100 µM (inactive) | > 100 µM (inactive) | > 100 µM (inactive) |
